From ChEMBL document CHEMBL1201862, “PubChem BioAssay data set” (2004)
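Each compound was tested at five concentrations against cells in 96-well plates for 48 hours. At the GI50, growth is halved.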 The source made the active and inactive calls. Rule as the data show it: active = GI50 up to about 1.1 µM and inactive = higher.

What was measured:
Assay in all cases: growth of human tumour cells (NCI), 48 h
[1] = tested on: CCRF-CEM
[2] = tested on: COLO 205
[3] = tested on: HL-60
[4] = tested on: HT-29
[5] = tested on: MDA-MB-435
[6] = tested on: MDA-N
[7] = tested on: MOLT-4
[8] = tested on: NCI-H460
[9] = tested on: PC-3
[10] = tested on: RPMI-8226
[11] = tested on: SF-295
[12] = tested on: SK-MEL-28
[13] = tested on: SK-MEL-5
[14] = tested on: SK-OV-3
[15] = tested on: T47D
[16] = tested on: UACC-62
[17] = tested on: NCI-H522
[18] = tested on: 786-0

Measured: GI50

CCOC(=O)c1csc(NC(=O)C(C)N2CCCCC2)n1 (configuration not stated)
inactive: [1] > 100 µM | [2] > 100 µM | [3] > 100 µM | [4] > 100 µM | [5] > 100 µM | [6] > 100 µM | [7] > 100 µM | [8] > 100 µM | [9] > 100 µM | [10] > 100 µM | [11] > 100 µM | [12] > 100 µM | [13] > 100 µM | [14] > 100 µM | [15] > 100 µM | [16] > 100 µM

C=C[C@@](C)(/C=C/c1ccc(O)cc1)CCC=C(C)C [BAKUCHIOL]
inactive: [1] 14.8 µM | [2] 17.7 µM | [3] 14.1 µM | [4] 16.5 µM | [5] 18.2 µM | [6] 17.3 µM | [7] 13.1 µM | [8] 15.6 µM | [17] 17.1 µM | [9] 16.8 µM | [10] 14.9 µM | [11] 20.2 µM | [12] 20 µM | [13] 16 µM | [14] 16.3 µM | [15] 14 µM

COc1cc(OC2OC(CO)C(O)C(O)C2O)c2c(O)c3c(=O)cc(C)oc3cc2c1 (configuration not stated)
inactive: [1] > 100 µM | [2] > 100 µM | [3] > 100 µM | [4] > 100 µM | [5] > 100 µM | [6] > 10 µM | [7] > 100 µM | [8] > 100 µM | [17] > 100 µM | [9] > 100 µM | [10] > 100 µM | [11] 65.5 µM | [12] > 100 µM | [13] > 100 µM | [14] > 100 µM | [15] > 100 µM | [16] > 100 µM

CC(C)=CCc1c(O)c(CC2=C(O)C(CC=C(C)C)(C(=O)C(C)C)C(O)=C(C)C2=O)c(O)c(C(=O)C(C)C)c1O (configuration not stated)
inactive: [18] 10.7 µM | [1] 5.78 µM | [2] 13 µM | [3] 39 µM | [4] 3.88 µM | [5] 16.2 µM | [6] 14.3 µM | [7] 2.31 µM | [17] 6.55 µM | [9] 5.66 µM | [10] 6.46 µM | [11] 9.33 µM | [12] 13.2 µM | [13] 7.87 µM | [14] 18.8 µM | [15] 8.45 µM | [16] 7.98 µM

C[C@]12CC[C@H](O)CC1=CC[C@@H]1[C@@H]2CC[C@]2(C)C(=O)CC[C@@H]12 [PRASTERONE]
inactive: [18] > 100 µM | [2] > 100 µM | [4] > 100 µM | [5] > 100 µM | [6] > 100 µM | [7] > 100 µM | [17] > 100 µM | [9] > 100 µM | [10] > 100 µM | [11] > 100 µM | [12] > 100 µM | [13] > 100 µM | [14] > 100 µM | [15] > 100 µM | [16] > 100 µM

O=S(=O)(O)c1ccc2c(/N=N/c3cccc4ccccc34)c(O)c(S(=O)(=O)O)cc2c1
inactive: [18] > 100 µM | [1] > 100 µM | [2] > 100 µM | [3] > 100 µM | [4] > 100 µM | [5] > 100 µM | [6] > 100 µM | [7] > 100 µM | [17] > 100 µM | [9] > 100 µM | [10] > 100 µM | [11] > 100 µM | [12] > 100 µM | [13] > 100 µM | [14] > 100 µM | [15] > 100 µM | [16] > 100 µM

CC(NNC(=O)c1cc[n+]([BH2-]C#N)cc1)c1ccc(Cl)cc1Cl (configuration not stated)
inactive: [18] 49.1 µM | [1] 33.3 µM | [2] 60.7 µM | [3] 23.8 µM | [5] 42.1 µM | [6] > 100 µM | [7] 17.5 µM | [8] 44.1 µM | [17] 28.6 µM | [9] 33.6 µM | [10] 17.6 µM | [11] 32.5 µM | [12] 44.5 µM | [13] 23 µM | [15] 34.5 µM | [16] 55.8 µM

Cc1ccnn1CCc1ccc(Cl)cc1Cl
inactive: [1] 25.4 µM | [2] 35 µM | [3] 7.69 µM | [4] 36.8 µM | [5] 38.2 µM | [6] 44.3 µM | [7] 13.1 µM | [8] 27.2 µM | [9] 27 µM | [10] 8.73 µM | [11] 18 µM | [12] 35.4 µM | [13] 19 µM | [14] 65.9 µM | [15] 8.97 µM | [16] 8.73 µM

CN(C)/N=N/c1ccc(NC=O)cc1
inactive: [18] > 100 µM | [1] 40.7 µM | [2] > 100 µM | [3] 51.9 µM | [4] > 100 µM | [5] > 100 µM | [6] > 100 µM | [7] 55.8 µM | [8] > 100 µM | [9] > 100 µM | [10] 69 µM | [11] > 100 µM | [12] > 100 µM | [13] > 100 µM | [14] > 100 µM | [15] 39.6 µM | [16] 40.6 µM

Oc1nc(-c2ccc3ccccc3c2)nc2ccccc12
inactive: [18] 6.89 µM | [2] > 100 µM | [3] > 100 µM | [4] 57.7 µM | [5] 61.9 µM | [6] 49.2 µM | [7] > 100 µM | [8] 21.9 µM | [17] 73.8 µM | [9] > 100 µM | [10] > 100 µM | [11] 23.4 µM | [12] > 100 µM | [13] > 100 µM | [14] 30.3 µM | [15] 64 µM | [16] > 100 µM

COc1cc(C2C3=C(N=C4SC(C(C)=O)=C(C)N42)c2ccccc2CC3)cc(OC)c1OC (configuration not stated)
inactive: [18] > 100 µM | [1] > 100 µM | [2] 54.3 µM | [3] 30.8 µM | [4] 64.4 µM | [5] 57 µM | [6] 28.7 µM | [7] > 10 µM | [9] > 100 µM | [10] 13.8 µM | [11] 68.7 µM | [12] > 100 µM | [13] 41.8 µM | [14] > 100 µM | [15] 11.4 µM | [16] > 100 µM

OC[P+](CO)(CO)C12CC3CC(CC(C3)C1)C2
inactive: [1] 4.9 µM | [2] > 100 µM | [3] 10.3 µM | [4] 48.5 µM | [5] > 100 µM | [6] > 100 µM | [7] 26.4 µM | [8] 76.4 µM | [17] > 70.8 µM | [9] > 100 µM | [10] 21.9 µM | [11] > 30.1 µM | [12] > 100 µM | [13] > 100 µM | [14] > 100 µM | [15] > 100 µM | [16] > 100 µM
